Marks after values point to notes of the source that are not given here.
Assays:
[1] = test system: BALB/c mice; assay: CLP polymicrobial sepsis model in mice (Example 3); format: in vivo, mouse; settings: for Serum IL-1β / Serum TNF-α / Serum sTREM-1: 24 hours after CLP
Description: Male Balb/C mice (20 to 23 g) were randomly grouped and treated with normal saline (n=14) or the control peptide (n=14, 100 μg) or with P5 (100 μg) in a single infection at HO (n=18), H+4 (n=18) or H+24 (n=18). The last group of mice (n=18) was treated with repeated injections of P5 (100 μg) at H+4, H+8 and H+24.
Mice (n=15 per group) were treated with a single injection of normal saline or 10 μg, 20 μg, 50 μg, 100 μg or 200 μg of P5 at HO after the CLP and monitored for survival.
Mice (5 per group) were killed under anaesthesia at 24 hours after CLP. Bacterial counts in peritoneal lavage fluid and blood were determined and results are expressed as CFU per mL of blood and CFU per mouse for the peritoneal lavage.
Male Balb/C mice (7 to 9 weeks, 20 to 23 g) were anaesthetized by i.p. administration of ketamine and xylazine in 0.2 mL sterile pyrogen-free saline. The caecum was exposed through a 1.0 cm abdominal midline incision and subjected to a ligation of the distal half followed by two punctures with a G21 needle. A small amount of stool was expelled from the punctures to ensure patency. The caecum was replaced into the peritoneal cavity and the abdominal incision closed in two layers. After surgery all mice were injected s.c. with 0.5 ml of physiologic saline solution for fluid resuscitation and s.c. every 12 h with 1.25 mg (i.e. 50 μg/g) of imipenem. The animals were randomly grouped and treated with normal saline (n=14), the control peptide (n=14, 100 μg) or P5 (100 μg) in a single injection at HO (n=18), H+4 (n=18) or H+24 (n=18). The last group of mice (n=18) was treated with repeated injections of P5 (100 μg) at H+4, H+8 and H+24. All treatments were diluted into 500 μl of normal saline and administered i.p. The Inventors next sought to determine the effect of various doses of P5. For this purpose, mice (n=15 per group) were treated with a single injection of normal saline or 10 μg, 20 μg, 50 μg 100 μg or 200 μg of P5 at HO after the CLP and monitored for survival. Five additional animals per group were killed under anaesthesia 24 hours after CLP for the determination of bacterial count and cytokines levels. Peritoneal lavage fluid was obtained using 2 mL RPMI 1640 (Life Technologies) and blood was collected by cardiac puncture. Concentrations of TNF-α and IL-1β in the serum were determined by ELISA (BD Biosciences). For the assessment of bacterial counts, blood and peritoneal lavage fluid were plated in serial log dilutions on tryptic soy supplemented with 5% sheep blood agar plates. After plating, tryptic soy agar plates were incubated at 37° C. aerobically for 24 hours, and anaerobically for 48 hours. Results are expressed as CFU per mL of blood and CFU per mouse for the peritoneal lavage.

[2] = test system: rats; assay: CLP polymicrobial sepsis model in rats, haemodynamic and biological measurements; format: in vivo, rat; settings: for effect on TNF-α production: CLP (FIG. 16); for Aortic blood flow / Bicarbonate / Heart Rate / Lactate / Mesenteric blood flow / pH: CLP polymicrobial sepsis; for decline in arterial pressure over time: H16 to H24 (FIG. 15)
Description: The procedure has been described in details elsewhere (see Mansart, A. et al. Shock 19:38-44 (2003)). Briefly, rats (n=6-10 per group) were anesthetized by i.p. administration of ketamine (150 mg/kg). The caecum was exposed through a 3.0-cm abdominal midline incision and subjected to a ligation of the distal half followed by two punctures with a G21 needle. A small amount of stool was expelled from the punctures to ensure […]. The caecum was replaced into the peritoneal cavity and the abdominal incision closed in two layers. After surgery, all rats were injected s.c. with 50 mL/kg of normal saline solution for fluid resuscitation. TREM-1 or scrambled peptides were then administered as above.
Immediately after LPS administration as well as 16 hours after CLP, arterial BP (systolic, diastolic, and mean), heart rate, abdominal aortic blood flow, and mesenteric blood flow were recorded using a procedure described elsewhere (see Mansart, A. et al. Shock 19:38-44 (2003)). Briefly, the left carotid artery and the left jugular vein were cannulated with PE-50 tubing. Arterial BP was continuously monitored by a pressure transducer and an amplifier-recorder system (IOX EMKA Technologies, Paris, France). Perivascular probes (Transonic Systems, Ithaca, N.Y.) wrapped up the upper abdominal aorta and mesenteric artery, allowed to monitor their respective flows by means of a flowmeter (Transonic Systems). After the last measurement (4th hour during LPS experiments and 24th hour after CLP), animals were sacrificed by an overdose of sodium thiopental i.v.
Blood was sequentially withdrawn from the left carotid artery. Arterial lactate concentrations and blood gases analyses were performed on an automatic blood gas analyser (ABL 735, Radiometer, Copenhagen, Denmark). Concentrations of TNF-α and IL-1β in the plasma were determined by an ELISA test (Biosource, Nivelles, Belgium) according to the recommendations of the manufacturer. Plasmatic concentrations of nitrates/nitrites were measured using the Griess reaction (R&D Systems, Abingdon, UK).

Sequence | effect on TNF-α production [2] | Aortic blood flow ([2]; H16) | Bicarbonate ([2]; H16) | Heart Rate ([2]; H16) | Lactate ([2]; H16) | Mesenteric blood flow ([2]; H16) | pH ([2]; H16) | Aortic blood flow ([2]; H20) | Bicarbonate ([2]; H20) | Heart Rate ([2]; H20) | Lactate ([2]; H20) | Mesenteric blood flow ([2]; H20) | pH ([2]; H20) | Aortic blood flow ([2]; H24) | Bicarbonate ([2]; H24) | Heart Rate ([2]; H24) | Lactate ([2]; H24) | Mesenteric blood flow ([2]; H24) | pH ([2]; H24) | decline in arterial pressure over time ([2]; CLP) | further results
LQVTDSGLYRCVIYHPP [P5] | decrease | 41 ± 14 mL/min | 18.6 ± 2.0 mmol/L | 460 ± 17^b bpm | 3.3 ± 0.4^b mmol/L | 15.3 ± 3.5^b mL/min | 7.35 ± 0.01^b | 31 ± 5^b mL/min | 18.0 ± 0.9^a mmol/L | 500 ± 17^b bpm | 3.6 ± 0.9^b, c mmol/L | 11.0 ± 6.9^b, c mL/min | 7.34 ± 0.01^b | 28 ± 8^b mL/min | 17.1 ± 0.9^a, c mmol/L | 510 ± 20 bpm | 4.9 ± 1.1^b, c mmol/L | 8.5 ± 3.5^b, c mL/min | 7.36 ± 0.01^b, c | almost totally abolished | effect on survival of repeated injections ([1]; 100 μg at H+4, H+8 and H+24 after CLP): more favourable effect on survival; Serum IL-1β ([1]; 10 μg at H0): 356 ± 62 pg/mL; Serum TNF-α ([1]; 10 μg at H0): 110 ± 11 pg/mL; Serum sTREM-1 ([1]; 10 μg at H0): 43 ± 8 ng/mL; Serum IL-1β ([1]; 20 μg at H0): 324 ± 58 pg/mL; Serum TNF-α ([1]; 20 μg at H0): 89 ± 10 pg/mL; Serum sTREM-1 ([1]; 20 μg at H0): 58 ± 8 ng/mL; Serum IL-1β ([1]; 50 μg at H0): 57 ± 11 pg/mL; Serum TNF-α ([1]; 50 μg at H0): 24 ± 6 pg/mL; Serum sTREM-1 ([1]; 50 μg at H0): 93 ± 10 ng/mL; Serum IL-1β ([1]; 100 μg at H0): 31 ± 3 pg/mL; Serum TNF-α ([1]; 100 μg at H0): 20 ± 3 pg/mL; Serum sTREM-1 ([1]; 100 μg at H0): 118 ± 12 ng/mL; Serum IL-1β ([1]; 200 μg at H0): 37 ± 8 pg/mL; Serum TNF-α ([1]; 200 μg at H0): 21 ± 7 pg/mL; Serum sTREM-1 ([1]; 200 μg at H0): 158 ± 13 ng/mL; plasmatic TNF-α ([2]; CLP, by H20 (FIG. 16)): almost undetectable
LVVTQRPFTRPSEVHMGKFTLKH (listed as Mus musculus) [P1] | decrease | 41 ± 12 mL/min | 16.8 ± 4.4 mmol/L | 462 ± 16^a bpm | 4.9 ± 0.4 mmol/L | 13.5 ± 7.2 mL/min | 7.32 ± 0.04 | 28 ± 17^a mL/min | 16.0 ± 5.4^b mmol/L | 480 ± 30^a bpm | 5.3 ± 1.1^a, c mmol/L | 5.3 ± 3.0^c mL/min | 7.31 ± 0.18^a | 22 ± 16^a mL/min | 11.2 ± 0.8^c mmol/L | 420 ± 30 bpm | 6.8 ± 0.9^a, c mmol/L | 4.5 ± 2.1^c mL/min | 7.24 ± 0.06^a, c | almost totally abolished | 
